# Experimental data taken from BindingDB's records for patent US10370339 (Bayer Pharma Aktiengesellschaft, 2019).
# Target: Isocitrate dehydrogenase [NADP] cytoplasmic [R132H] (Homo sapiens, UniProt O75874, R132H)
# Assay: Biological Assay
# Method: Mutant IDH1 R132H Biochemical Assay mIDH1 catalyzes the NADPH-dependent reduction of alpha-ketoglutarate (a-KG) to (2R)-2-hydroxyglutarate (2-HG). NADPH consumption was measured by luminescent readout.The biochemical reactions were performed at 32° C. in 384-well plates using a reaction volume of 41 μL and the following assay buffer conditions: 50 mM Tris pH 7.5, 100 mM NaCl, 20 mM MgCl2, 0.05% BSA, 0.01% Brij, 1 μM NADPH, and 250 μM α-KG. The IDH1 R132H enzyme was used in a final concentration of 1.5 nM. Test compounds were used in a concentration range between 0.002 and 10 μM. The final DMSO concentration was 2.4%.The reaction was incubated for 30 minutes, then 40 μL of detection mix (0.75 μg/ml Luciferase, 0.02 U/ml Oxidoreductase, 4 μg/mL FMN, 2 μL/ml decanal/ethanol, 50 mM Tris pH 7.5, 0.5% Glycerin, 0.01% Tween-20, 0.05% BSA) was added. Luminescence was measured on a luminescent reader (10 seconds measuring time, 1 second integration period, 30% sensitivity). The decrease in luminescence is proportional to mIDH1 activity. IC50 values are determined by interpolation from plots of relative luminescence versus inhibitor concentration.
# Isocitrate dehydrogenase [NADP] cytoplasmic [R132H], sequence (O75874 2-414 R132H limits assumed): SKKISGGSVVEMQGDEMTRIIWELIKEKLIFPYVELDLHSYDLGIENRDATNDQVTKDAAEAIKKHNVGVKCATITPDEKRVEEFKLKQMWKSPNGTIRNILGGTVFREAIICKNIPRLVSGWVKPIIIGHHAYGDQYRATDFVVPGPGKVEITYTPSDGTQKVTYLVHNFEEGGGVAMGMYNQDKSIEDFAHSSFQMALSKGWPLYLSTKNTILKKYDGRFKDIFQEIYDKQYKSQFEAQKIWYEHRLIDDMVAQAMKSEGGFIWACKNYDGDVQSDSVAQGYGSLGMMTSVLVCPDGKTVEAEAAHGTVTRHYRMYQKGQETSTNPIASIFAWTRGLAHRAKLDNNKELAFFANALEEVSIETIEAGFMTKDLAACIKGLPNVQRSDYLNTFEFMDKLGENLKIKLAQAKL
row,SMILES,IC50
1,"COc1cc2c(cc1C(=O)O)nc(Nc1ccc(OC(C)C)cc1)n2[C@@H]1C[C@H](C)CC[C@H]1C(C)C [US10370339, Example 2-30]",0.015 µM
2,"CC(C)[C@@H]1CC[C@@H](C)C[C@H]1n1c(Nc2ccc(OC(F)(F)F)cc2)nc2cc(CC(=O)O)ccc21 [US10370339, Example 2-31]",0.014 µM
3,"COc1cc2c(cc1CCC(=O)O)nc(Nc1ccc(C(C)C)cc1)n2[C@@H]1C[C@H](C)CC[C@H]1C(C)C [US10370339, Example 2-48]",0.011 µM
